Measured values as given in patent publication US10689377B2 (Mirati Therapeutics, Inc., priority 2017, dated 2020).
pIC50: −log10 of the molar value.

Legend:
KRas G12C [1] = target: KRas G12C (Homo sapiens, UniProt P01116, G12C); experiment: Cellular inhibition of KRas G12C measured by Phospho-ERK in NCI-H358 cells; format: cell-based; settings: pERK(Thr202/Tyr204) normalized with GAPDH, NCI-H358 cells, 3 hours; read-out: IC50
Procedure, shortened: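 Ratio of phospho-ERK(Thr202/Tyr204) to GAPDH, read by near-infrared secondary antibodies on fixed, permeabilised NCI-H358 cells, expressed relative to DMSO control. Compound exposure was 3 h at 0.5% DMSO. IC50 values come from 4-parameter curve fits.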

KRas G12C [2] = target: KRas G12C (Homo sapiens, UniProt P01116, C118S/C51S/C80L/G12C); experiment: KRas G12C Modification Assay (LCMS detection of covalent adduct); format: binding
Experimental: A 10 μL aliquot of each protein solution was then transferred to a 384 well microtiter plate. Initial compound stocks were generated at fifty times their desired final assay concentration in DMSO.
Exemplary compounds of Formula (I) were diluted 25-fold into K-Ras Assay Buffer to a final of two times their final concentration. A 10 μL aliquot of each diluted compound solution was then added to each of the protein solutions in the microtiter plate to initiate reaction. […] At each time point, the reactions were quenched with 20 μL of a 25 mM acetic acid solution. […] Once all reactions were quenched, the plates were heat sealed and the samples were injected into a LC/MS system for data acquisition.
Samples were injected in their liquid phase onto a C-3 reverse phase column to remove assay buffer and prepare the samples for mass spectrometer. The proteins were eluted from the column using an acetonitrile gradient and fed directly into the mass analyzer. Initial raw data analysis took place in Agilent MassHunter software immediately post data acquisition.
Raw data analysis of the intact protein was exclusively a deconvolution of the multiple charge states of each protein in solution using a maximum entropy deconvolution provided in Mass Hunter. To minimize complexity, only the data over limited mass ranges were considered for analysis, with a minimum of one Dalton mass step intervals. The heights of all masses identified during raw data analysis were exported to be further analyzed in Spotfire® data analysis software.
Final data analysis was a multistep process in the Spotfire® data analysis software package. Briefly, each protein mass was calculated as a percent of the total signal of that sample, that percentage was then normalized to the percentage of signal of the protein in the absence of reactive compounds. Those normalized signals were reported as normalized percent of control (POC). […] Key: “A”≤25% POC; “B”>25% POC-≤50% POC; “C”>50% POC and ND=not determined.

[3] = normalized percent of control, 5 μM concentration for 3 hours

| Compound | pIC50 (KRas G12C [1]) | POC (KRas G12C [2]; [3]) | POC (KRas G12C [2]; 5 µM) |
| --- | --- | --- | --- |
| C=CC(=O)N1CCN(c2nc(O[C@H](C)CN(C)CC)nc3c2CCN(c2cc(O)cc4ccccc24)C3)CC1 [Example 131, 1-[4-[2-[(1R)-2-[ethyl(methyl)amino]-1-methyl-ethoxy]-7-(3-hydroxy-1-naphthyl)-6,8-dihydro-5H-pyrido[3,4-d]pyrimidin-4-yl]piperazin-1-yl]prop-2-en-1-one] | 6.00 to 10.00 | C (“C”>50% POC) |  |
| C=CC(=O)N1CCN(c2nc(OC[C@@H]3CCCN3C)nc3c2CCN(c2cccc4ccccc24)C3)CC1CC#N (stereo partly drawn) [Example 147, 2-[4-[2-[[(2S)-1-methylpyrrolidin-2-yl]methoxy]-7-(1-naphthyl)-6,8-dihydro-5H-pyrido[3,4-d]pyrimidin-4-yl]-1-prop-2-enoyl-piperazin-2-yl]acetonitrile] | 6.00 to 10.00 | C (“C”>50% POC) |  |
| C=CC(=O)N1CCN(c2nc(OC[C@@H]3CCCN3C)nc3c2CCN(c2c(C)ccc4[nH]ncc24)C3)CC1CC#N (stereo partly drawn) [Example 148, 2-[4-[7-(5-methyl-1H-indazol-4-yl)-2-[[(2S)-1-methylpyrrolidin-2-yl]methoxy]-6,8-dihydro-5H-pyrido[3,4-d]pyrimidin-4-yl]-1-prop-2-enoyl-piperazin-2-yl]acetonitrile] | 6.00 to 10.00 | C (“C”>50% POC) |  |
| C=CC(=O)N1CCN(c2nc(OC[C@@H]3CCCN3C)nc3c2CCN(c2c(C(F)(F)F)ccc4[nH]ncc24)C3)CC1CC#N (stereo partly drawn) [Example 149, 2-[4-[2-[[(2S)-1-methylpyrrolidin-2-yl]methoxy]-7-[5-(trifluoromethyl)-1H-indazol-4-yl]-6,8-dihydro-5H-pyrido[3,4-d]pyrimidin-4-yl]-1-prop-2-enoyl-piperazin-2-yl]acetonitrile] | 6.00 to 10.00 | B (“B”>25% POC-≤50% POC) |  |
| C=CC(=O)N1CCN(c2nc(OC[C@@H]3CCCN3C)nc3c2CCN(c2c(C)ccc4[nH]ncc24)C3)CC1 [Example 155, (S)-1-(4-(7-(5-methyl-1H-indazol-4-yl)-2-((1-methylpyrrolidin-2-yl)methoxy)-5,6,7,8-tetrahydropyrido[3,4-d]pyrimidin-4-yl)piperazin-1-yl)prop-2-en-1-one] | 6.00 to 10.00 |  | C (key: “A”≤25% POC; “B”>25% POC-≤50% POC; “C”>50% POC) |
| C=CC(=O)N1CCN(c2nc(OC[C@@H]3CCCN3C)nc3c2CCN(c2ccccc2C(C)C)C3)CC1 [Example 158, 1-[4-[7-(2-isopropylphenyl)-2-[[(2S)-1-methylpyrrolidin-2-yl]methoxy]-6,8-dihydro-5H-pyrido[3,4-d]pyrimidin-4-yl]piperazin-1-yl]prop-2-en-1-one] | < 6.00 | C (“C”>50% POC) |  |
| C=CC(=O)N1CCN(c2nc(OCCCN3CCOCC3)nc3c2CCN(c2c(F)c(O)cc4ccccc24)C3)CC1 [Example 165, 1-[4-[7-(2-fluoro-3-hydroxy-1-naphthyl)-2-(3-morpholinopropoxy)-6,8-dihydro-5H-pyrido[3,4-d]pyrimidin-4-yl]piperazin-1-yl]prop-2-en-1-one] | < 6.00 |  | C (key: “A”≤25% POC; “B”>25% POC-≤50% POC; “C”>50% POC) |
| C=C(F)C(=O)N1CCN(c2nc(OC[C@@H]3CCCN3C)nc3c2CCN(c2cncc4ccc(C)cc24)C3)C[C@@H]1CC#N [Example 607, 2-((S)-1-(2-fluoroacryloyl)-4-(7-(6-methylisoquinolin-4-yl)-2-(((S)-1-methylpyrrolidin-2-yl)methoxy)-5,6,7,8-tetrahydropyrido[3,4-d]pyrimidin-4-yl)piperazin-2-yl)acetonitrile] | 6.00 to 10.00 |  |  |
| C=C(F)C(=O)N1CCN(c2nc(OC[C@@H]3CCCN3C)nc3c2CCN(c2cccc4cccc(CC)c24)C3)C[C@@H]1CC#N [Example 608, 2-[(2S)-4-[7-(8-ethyl-1-naphthyl)-2-[[(2S)-1-methylpyrrolidin-2-yl]methoxy]-6,8-dihydro-5H-pyrido[3,4-d]pyrimidin-4-yl]-1-(2-fluoroprop-2-enoyl)piperazin-2-yl]acetonitrile] | 6.00 to 10.00 |  |  |
| C=C(F)C(=O)N1CCN(c2nc(OC[C@@H]3CCCN3C)nc3c2CCN(c2cncc4ccc(F)cc24)C3)C[C@@H]1CC#N [Example 609, 2-[(2S)-4-[7-(6-fluoro-4-isoquinolyl)-2-[[(2S)-1-methylpyrrolidin-2-yl]methoxy]-6,8-dihydro-5H-pyrido[3,4-d]pyrimidin-4-yl]-1-(2-fluoroprop-2-enoyl)piperazin-2-yl]acetonitrile] | 6.00 to 10.00 |  |  |
| C=C(F)C(=O)N1CCN(c2ncnc3c2CCN(c2cccc4ccccc24)C3)C[C@@H]1CC#N [Example 610, (S)-2-(1-(2-fluoroacryloyl)-4-(7-(naphthalen-1-yl)-5,6,7,8-tetrahydropyrido[3,4-d]pyrimidin-4-yl)piperazin-2-yl)acetonitrile] | < 6.00 |  |  |
| C=C(F)C(=O)N1CCN(c2ncnc3c2CCN(c2cccc4cccc(C)c24)C3)C[C@@H]1CC#N [Example 611, (S)-2-(1-(2-fluoroacryloyl)-4-(7-(8-methylnaphthalen-1-yl)-5,6,7,8-tetrahydropyrido[3,4-d]pyrimidin-4-yl)piperazin-2-yl)acetonitrile] | < 6.00 |  |  |
| C=C(F)C(=O)N1CCN(c2ncnc3c2CCN(c2cncc4cccc(Cl)c24)C3)C[C@@H]1CC#N [Example 612, (S)-2-(4-(7-(5-chloroisoquinolin-4-yl)-5,6,7,8-tetrahydropyrido[3,4-d]pyrimidin-4-yl)-1-(2-fluoroacryloyl)piperazin-2-yl)acetonitrile] | < 6.00 |  |  |
| C=C(F)C(=O)N1CCN(c2nc(OC[C@@H]3CC(F)(F)CN3C)nc3c2CCN(c2c(C)c(C)cc4[nH]ncc24)C3)C[C@@H]1CC#N [Example 613, 2-((S)-4-(2-(((S)-4,4-difluoro-1-methylpyrrolidin-2-yl)methoxy)-7-(5,6-dimethyl-1H-indazol-4-yl)-5,6,7,8-tetrahydropyrido[3,4-d]pyrimidin-4-yl)-1-(2-fluoroacryloyl)piperazin-2-yl)acetonitrile] | 6.00 to 10.00 |  |  |
| Cc1cc2[nH]ncc2c(N2CCc3c(nc(OC[C@@H]4CC(F)(F)CN4C)nc3N3CCN(C(=O)/C=C/CF)[C@@H](CC#N)C3)C2)c1C [Example 614, 2-((S)-4-(2-(((S)-4,4-difluoro-1-methylpyrrolidin-2-yl)methoxy)-7-(5,6-dimethyl-1H-indazol-4-yl)-5,6,7,8-tetrahydropyrido[3,4-d]pyrimidin-4-yl)-1-((E)-4-fluorobut-2-enoyl)piperazin-2-yl)acetonitrile] | 6.00 to 10.00 |  |  |
| C=C(F)C(=O)N1CCN(c2nc(OC[C@@H]3CC(C)(C)CN3C)nc3c2CCN(c2cccc4cccc(C)c24)C3)C[C@@H]1CC#N [Example 615, 2-[(2S)-1-(2-fluoroprop-2-enoyl)-4-[7-(8-methyl-1-naphthyl)-2-[[(2S)-1,4,4-trimethylpyrrolidin-2-yl]methoxy]-6,8-dihydro-5H-pyrido[3,4-d]pyrimidin-4-yl]piperazin-2-yl]acetonitrile] | 6.00 to 10.00 |  |  |
| C=C(F)C(=O)N1CCN(c2nc(OC[C@@H]3C[C@H](C)CN3C)nc3c2CCN(c2cccc4cccc(C)c24)C3)C[C@@H]1CC#N [Example 616, 2-[(2S)-4-[2-[[(2S,4S)-1,4-dimethylpyrrolidin-2-yl]methoxy]-7-(8-methyl-1-naphthyl)-6,8-dihydro-5H-pyrido[3,4-d]pyrimidin-4-yl]-1-(2-fluoroprop-2-enoyl)piperazin-2-yl]acetonitrile] | 6.00 to 10.00 |  |  |
| C=C(F)C(=O)N1CCN(c2nc(OC[C@@H]3CCCN3C)nc3c2CCN(c2c(C)ncc4ccccc24)C3)C[C@@H]1CC#N [Example 617] | < 6.00 |  |  |
| C=C(F)C(=O)N1CCN(c2nc(OC[C@@H]3CCCN3C)nc3c2CCN(c2cncc4cc(F)ccc24)C3)C[C@@H]1CC#N [Example 618, 2-[(2S)-4-[7-(7-fluoro-4-isoquinolyl)-2-[[(2S)-1-methylpyrrolidin-2-yl]methoxy]-6,8-dihydro-5H-pyrido[3,4-d]pyrimidin-4-yl]-1-(2-fluoroprop-2-enoyl)piperazin-2-yl]acetonitrile] | < 6.00 |  |  |
| C=C(F)C(=O)N1CCN(c2nc(OC[C@@H]3CCCN3C)nc3c2CCN(c2cncc4cccc(C)c24)C3)C[C@@H]1CC#N [Example 619, 2-[(2S)-1-(2-fluoroprop-2-enoyl)-4-[7-(5-methyl-4-isoquinolyl)-2-[[(2S)-1-methylpyrrolidin-2-yl]methoxy]-6,8-dihydro-5H-pyrido[3,4-d]pyrimidin-4-yl]piperazin-2-yl]acetonitrile] | 6.00 to 10.00 |  |  |
| C=C(F)C(=O)N1CCN(c2nc(OC[C@@H]3CCCN3C)nc3c2CCN(c2cccc4cccc(Cl)c24)C3)[C@@H](C(F)F)C1 [Example 621, 1-[(3R)-4-[7-(8-chloro-1-naphthyl)-2-[[(2S)-1-methylpyrrolidin-2-yl]methoxy]-6,8-dihydro-5H-pyrido[3,4-d]pyrimidin-4-yl]-3-(difluoromethyl)piperazin-1-yl]-2-fluoro-prop-2-en-1-one] | < 6.00 |  |  |
